# Experiments:
# [1] = Maximum soluble amount in cosmetic liquid of prescription example 1 (HPLC); type: physicochemical; conditions: 1.0% added to prescription example 1, insolubles filtered off (1-μm filter paper)
# Procedure: Specifically, ubiquinone or ubiquinol was added in an amount corresponding to 1.0%. The resultant suspension was filtered through 1-μm filter paper, and thereby insolubles were removed. The cosmetic liquids B and C were thus prepared.
# The final concentrations of ubiquinone and ubiquinol in the cosmetic liquids B and C were measured by HPLC similarly to Example 1, resulting in 0.011% and 0.023%, respectively.
# [2] = Water solubility at normal temperature; type: physicochemical
# [3] = Maximum ubiquinone concentration in DMEM culture medium including 10% FBS (HPLC); type: physicochemical; conditions: DMEM with 10% FBS, 0.03% added, stirred 6 hours at room temperature, filtered
# Procedure: To a DMEM culture medium including 10% FBS, reagent ubiquinone was added in an amount corresponding to 0.03%. The mixture was stirred with a stirrer at room temperature for 6 hours. The mixture was filtered through a 0.02 µm filter, and a ubiquinone-containing culture medium was prepared.
# [4] = Test of radical scavenging ability (H2-DCFDA fluorescence, AAPH); type: biochemical; conditions: final concentration 0.006%, 30 minutes after AAPH addition, 37° C.
# Procedure: The resultant solution was added to a 10 mM aqueous sodium hydroxide solution such that the concentration of the agent was 1 mM. The radical fluorescence detecting agent was hydrolyzed in the dark at room temperature for 60 minutes and was activated. The liquid was diluted with Dulbecco's phosphate buffered saline (PBS) to give a diluted liquid with a final concentration of 0.01 mM. […]-40 manufactured by Nihon Emulsion Co., Ltd.). […] The mixture thus prepared was used as a test liquid. A test liquid having a final ubiquinone concentration of 0.006% was prepared in the same manner using ubiquinone. A test liquid was prepared as described above except that the ubiquinone solution was replaced by the same volume of distilled water. This test liquid was used as a negative control. […] The mixture was heated to 37° C. After 30 minutes after the addition, the fluorescence intensity at an excitation wavelength of 495 nm and a fluorescence wavelength of 525 nm of the respective liquids was measured. The fluorescence suppression was obtained as radical scavenging ability of ubiquinone and potassium ubiquinol-1,4-diphosphate.
# [5] = test system: Normal human skin fibroblast cells NB1RGB; conditions: 3 days, 0.007 %
# Procedure: Normal human skin fibroblast cells NB1RGB (spared from RIKEN) were inoculated to a DMEM culture medium including 10% FBS on a 9 cm Petri dish such that the normal human skin fibroblast cells NB1RGB were approximately 1.0×10^5 in number per ml. The cells were cultured in a CO2 incubator at 37° C. for 7 days to reach confluent while the culture medium was exchanged every 3 days. […] After the culture, the cells were cleaned three times on the Petri dish each with 10 ml of PBS(−), and were released and recovered using trypsin/EDTA. The cells were then resuspended in 1 ml of PBS(−), and were quickly broken with a homogenizer. Insoluble matters were removed by centrifugal separation at 10000 rpm for 10 minutes, and 10 μl of the supernatant was subjected to HPLC. The remainder was combined with an equivalent amount of hexane, and these were sufficiently mixed together to give a turbid liquid. The turbid liquid was subjected to centrifugal separation at 10000 rpm for 3 minutes, and the resultant supernatant hexane layer was analyzed by HPLC.
# Column: Shodex F-511A (manufactured by Showa Denko K.K)
# Column temperature: 40° C.
# Eluent: methanol/water/phosphoric acid=1000/5/1
# Detection: photodiode array 210 nm-370 nm
# In the HPLC analysis, ubiquinone used in Synthetic Example 1 and ubiquinol immediately after synthesized in Synthetic Example 1 were used as references. […]
compound,measurement,setting,value
COc1c(O)c(C)c(C/C=C(\C)CC/C=C(\C)CC/C=C(\C)CC/C=C(\C)CC/C=C(\C)CC/C=C(\C)CC/C=C(\C)CC/C=C(\C)CC/C=C(\C)CCC=C(C)C)c(O)c1OC [ubiquinol],final concentration in the cosmetic liquid (maximum soluble amount),[1],0.023%
"COC1=C(OC)C(=O)C(C/C=C(\C)CC/C=C(\C)CC/C=C(\C)CC/C=C(\C)CC/C=C(\C)CC/C=C(\C)CC/C=C(\C)CC/C=C(\C)CC/C=C(\C)CCC=C(C)C)=C(C)C1=O [ubiquinone, 2,3-dimethoxy-5-methyl-6-polyprenyl-1,4-benzoquinone]",water solubility,[2],less than 100 ppm
same,ubiquinone concentration in the culture medium (probably the maximum),[3],0.007%
same,final concentration in the cosmetic liquid (maximum soluble amount),[1],0.011%
same,Fluorescence intensity (Ex 495/Em 525 nm: relative value),[4],13315 relative value
same,Radical scavenging ability (Fluorescence suppression (%)),[4],41%
same,Concentration in cells after culture: Ubiquinone,[5],2000 ng/mL
"tetrapotassium ubiquinol-1,4-diphosphate",Fluorescence intensity (Ex 495/Em 525 nm: relative value),[4],5001 relative value
same,Radical scavenging ability (Fluorescence suppression (%)),[4],78%

# Reference: patent US8551509B2, “Skin agent for external use and cosmetic agent including ubiquinone derivative or salt thereof and method using the same” (Showa Denko K.K., priority 2006, dated 2013)
